Data from US20120204273A1, “COMPOSITIONS RELATING TO A PHOSPHOPROTEIN AND METHODS OF USE” (SANFORD-BURNHAM MEDICAL RESEARCH INSTITUTE, priority 2010, published 2012).
Residue numbers refer to the chain shown, from its start. In names and notes the source's numbering stands.

B1: HA-CDP138-5DA: HA-tagged CDP138 with D19A, D26A, D76A, D78A, D84A (protein, UniProt Q86YS7 1-1000, looked up, variant D19A D26A D76A D78A D84A)
C2 domain-containing protein 5: MPGKLKVKIVAGRHLPVMARASDLTAAFVEVKFGNTTFKTDVYLKSLNPQWNSEWFKFEVDDEDLQDEPLQITVLAHATYSANAAIGKVYIDIDPLLYSEAATVISGWFPIYDTIHGIRGEINVVVKVDLFNDLNRFRQSSCGVKFFCTTSIPKCYRAVIIHGFVEELVVNEDPEYQWIDRIRTPRASNEARQRLISLMSGELQRKIGLKVLEMRGNAVVGYLQCFDLEGESGLVVRAIGTACTLDKLSSPAAFLPACNSPSKEMKEIPFNEDPNPNTHSSGPSTPLKNQTYSFSPSKSYSRQSSSSDTDLSLTPKTGMGSGSAGKEGGPFKALLRQQTQSALEQREFPFFTLTAFPPGFLVHVGGVVSARSVKLLDRIHNPDEPETRDAWWAEIRQEIKSHAKALGCHAVVGYSESTSICEEVCILSASGTAAVLNPRFLQDGTVEGCLEQRLEENLPTRCGFCHIPYDELNMPFPAHLTYCYNCRKQKVPDVLFTTIDLPTDATVIGKGCLIQARLCRLKKKAQAEANATAISNLLPFMEYEVHTQLMNKLKLKGMNALFGLRIQITVGENMLMGLASATGVYLAALPTPGGIQIAGKTPNDGSYEQHISHMQKKINDTIAKNKELYEINPPEISEEIIGSPIPEPRQRSRLLRSQSESSDEVTELDLSHGKKDAFVLEIDDTDAMEDVHSLLTDVPPPSGFYSCNTEIMPGINNWTSEIQMFTSVRVIRLSSLNLTNQALNKNFNDLCENLLKSLYFKLRSMIPCCLCHVNFTVSLPEDELIQVTVTAVAITFDKNQALQTTKTPVEKSLQRASTDNEELLQFPLELCSDSLPSHPFPPAKAMTVEKASPVGDGNFRNRSAPPCANSTVGVVKMTPLSFIPGAKITKYLGIINMFFIRETTSLREEGGVSGFLHAFIAEVFAMVRAHVAALGGNAVVSYIMKQCVFMENPNKNQAQCLINVSGDAVVFVRESDLEVVSSQQPTTNCQSSCTEGEVTT
modifications: HA tag
notes: HA-tagged CDP138 with D19A, D26A, D76A, D78A, D84A
B2: HA-CDP138-S197A: HA-tagged CDP138 mutant lacking the Akt2 phosphorylation site Ser197 (protein, UniProt Q86YS7 1-1000, looked up, variant S197A)
C2 domain-containing protein 5: B1 C2 domain-containing protein 5 with A19D, A26D, A76D, A78D, A84D, S197A
modifications: HA tag
notes: HA-tagged CDP138 mutant lacking the Akt2 phosphorylation site Ser197

Columns and labels:
[1] = test system: 3T3-L1 adipocytes; assay: myc-GLUT4-GFP translocation to the cell surface; format: cell-based, mouse; conditions: for effect on insulin-stimulated myc-GLUT4-GFP translocation to cell surface: fixed cells, Akti1/2 50 μM for 1 hr, insulin 100 nM 30 min; for effect of overexpression on insulin-stimulated myc-GLUT4-GFP translocation (TIRF myc / Epi GFP): insulin 100 nM, 30 min
Protocol: FIG. 2, panels A-C show knockdown of CDP138 in 3T3-L1 adipocytes inhibits insulin-stimulated glucose transport (A) and myc-GLUT4-GFP translocation (B), but not endogenous GLUT4 movement to the periphery detected in TIRF zone (C). (A): Differentiated adipocytes at day 5 were transfected with siRNAs against mouse 5730419I09Rik or the scrambled siRNA (Scr) as described earlier (Jiang et al., 2003) for 60 hrs, then serum starved overnight. Cells were then treated with or without insulin (1 nM and 100 nM) for 30 min for the glucose uptake assay, or 15 min for immunoblotting of CDP138, pAkt, Akt and β-actin. Glucose transport data are presented as mean±SD of 4 independent experiments. *P<0.05 vs Scr Insulin (1 nM) group; **P<0.01 vs Scr Insulin (100 nM) group. (B): Day 5 adipocytes were transfected with siRNAs and myc-GLUT4-GFP for 60 hrs and then serum starved overnight. Cells were then treated with insulin (1 nM) for 20 min. Cell surface Myc-GLUT4-GFP was detected with anti-myc monoclonal Ab (9E10) and Alexa Fluor 568-labeled goat anti-mouse IgG in non-permeablized cells. The Myc signal and GFP signal were quantified as previously described (Jiang et al., 2002). Data presented are representative microscopic images and mean±SD of about 160 GFP-positive cells in each group from three independent experiments. **P<0.01 vs Scr Insulin (1 nM) group. […] GLUT4 was detected with a goat anti-GLUT4 Ab and Alexa Fluor 488-conjugated donkey anti-goat Ab in permeabilized cells. Top and middle panels show 100 nm TIRF zone and representative GLUT4 TIRFM images, respectively. Data are mean±SD of 3 independent experiments. **P<0.01 vs Scr Insulin groups.
GLUT4 translocation detection with wide field fluorescence and TIRF microscopy: Both wide field and TIRF microscopy were used to detect myc-GLUT4-GFP translocation to the cell surface as previously described (Jiang et al., 2002) and herein.
To test the effect of RNAi-induced gene specific knockdown of CDP138 or overexpression of CDP138 mutants on GLUT4 translocation, siRNAs or CDP138 constructs were transfected into adipocytes together with myc-GLUT4-GFP by electroporation as previously described (Jiang et al, 2003). […] Cells were washed with cold PBS, fixed with 4% formaldehyde and immunostained. Briefly, for siRNA study, the cell surface Myc-GLUT4-GFP was visualized with mouse anti-Myc Ab (9E10) and AlexaFluoro568-labeled goat anti-mouse secondary Ab (Invitrogen) in PBS containing 1% FBS. After washing, the coverslip were mounted with Prolong antifade reagent (Invitrogen, Eugene Oreg.). Fluorescence microscopy was carried as described below. Then, images were acquired with wide field microscopy as described below. For the study with overexpressed HAtagged CDP138 constructs, the cell surface Myc-GLUT4-GFP was visualized with rabbit anti-Myc Ab (Cell signaling, Inc) and AlexaFluoro568-labeled goat anti-rabbit secondary Ab (InVitrogen) in PBS containing 1% FBS. Cells were further permeabilized with PSB containing 0.5% Tween-20, and HA-tagged protein was detected with a mouse anti-HA epitope primary Ab followed by AlexaFluoro-350-labelled goat anti-mouse IgG. Insulin-induced myc-GLUT4 accumulation (AlexaFluoro-568 signal) within the evanescence excitation field (100 nm from dorsal membrane) in transfected adipocytes was measured with a Nikon Eclipse-Ti microscope equipped with a CoolSNAP HQ2 camera and laser scanning TIRF capacity. Total GLUT4-GFP signals and […] Alexa Fluoro-350 signals were acquired with wide field imaging to identify double-transfected cells. The ratio of myc-GLUT4 signal in the TIRF zone to the total Epi-GFP signal in wide field was used as a measure of GLUT4 translocation to the cell surface.
(§1) Image Analysis and Quantification: TIRF and wide field fluorescence microscopy were performed using a Nikon inverted microscope (Melville, N.Y.) with a cooled charge-coupled device camera. […]

[2] = test system: 3T3-L1 adipocytes; assay: GSV-PM fusion in live adipocytes (IRAP-pHluorin, TIRF microscopy); format: cell-based, mouse; conditions: Akti1/2 5 μM for 1 h, insulin 100 nM 30 min
Excerpt: FIG. 3, panels A-C, show knockdown of CDP138 in live 3T3-L1 adipocytes inhibits insulin-stimulated membrane fusion between GLUT4 storage vesicles (GSV) and the PM, but not GLUT4-EGFP trafficking to the TIRF zone. (A): Schematic illustration of the molecular probes and TIRF microcopy-based live cell assays for GLUT4 trafficking and GSV-PM fusion. (B) and (C): The effect of CDP138 knockdown on insulin-stimulated IRAP-pHluorin insertion into the PM (B), and accumulation of GLUT4-EGFP in the TIRF zone (C). Adipocytes (day 4) were transfected by electroporation with plasmid DNA encoding IRAP-pHluorin or GLUT4-EGFP, together with either the scrambled siRNA or smartPool siRNA against mouse 5730419I09Rik. Cells were reseeded on glass-bottomed dishes for 72 hrs, serum starved for 2 hr then stimulated with 100 nM insulin for 30 min. Analyses were performed in a cell warmer adapted for a Nikon TiE with fully motorized combined dual laser (488 and 561 nm). Images were acquired every 3 min immediately after addition of insulin and analyzed as described in the Supplementary Experimental Procedures. Perfect focus system and multiple points capture program (NIS Element) were used to acquire images from multiple positively transfected cells at each time point. […]
Total Internal Reflection Fluorescence (TIRF) Microscopy: Nikon (Melville, N.Y.) TI-TIRF-E, which was based on the objective lens method, was used to perform all the TIRF experiments. […] Positively transfected adipocytes were identified, and the insulin-stimulated IRAP vesicle-PM fusion events or GLUT4-EGFP trafficking to the TIRF zone were recorded every 3 min for a 30 min period using Nikon Eclipse-Ti TIRF microscope. […]
as §1

Molecule	effect on insulin-stimulated myc-GLUT4-GFP translocation to cell surface [1]	effect on insulin-stimulated myc-GLUT4-GFP translocation to cell surface ([1]; listed as Akti1/2)	effect on insulin-induced GSV-PM membrane fusion [2]	effect on insulin-induced GSV-PM membrane fusion ([2]; listed as Akti1/2)	effect of overexpression on insulin-stimulated myc-GLUT4-GFP translocation (TIRF myc / Epi GFP) [1]	effect of overexpression on insulin-stimulated myc-GLUT4-GFP translocation (TIRF myc / Epi GFP) ([1]; listed as S197A)
O=c1[nH]c2ccccc2n1C1CCN(Cc2ccc(-c3nc4cc5nc[nH]c5cc4nc3-c3ccccc3)cc2)CC1 [Akti, reference compound]	significantly inhibited	blocks	significantly inhibited	blocks		
B1					inhibited	
B2					inhibited	blocked
